# Results: ChEMBL document CHEMBL3603744, “Structure activity relationship of C-2 ether substituted 1,5-naphthyridine analogs of oxabicyclooctane-linked novel bacterial topoisomerase inhibitors as broad-spectrum antibacterial agents (Part-5)” (Bioorg Med Chem Lett, 2015)
# The source made the active and inactive calls. No rule for the calls is given here.
# Tests used:
# Enterococcus faecium = test: Antimicrobial activity against vancomycin-resistant Enterococcus faecium VanA by micro broth dilution or agar based method; format: functional
# Pseudomonas aeruginosa = test: Antimicrobial activity against Pseudomonas aeruginosa PAO1 by micro broth dilution or agar based method; format: functional
# Escherichia coli = test: Antimicrobial activity against Escherichia coli ATCC 25922 by micro broth dilution or agar based method; format: functional
# Staphylococcus aureus [1] = test: Antimicrobial activity against Staphylococcus aureus Smith by micro broth dilution or agar based method; format: functional
# Staphylococcus aureus [2] = test: Antimicrobial activity against methicillin-resistant Staphylococcus aureus OIT971 by micro broth dilution or agar based method; format: functional, organism-based
# Streptococcus pneumoniae = test: Antimicrobial activity against Streptococcus pneumoniae IID553 by micro broth dilution or agar based method; format: functional
# Acinetobacter baumannii = test: Antimicrobial activity against Acinetobacter baumannii IID876 by micro broth dilution or agar based method; format: functional
SMILES,MIC (Enterococcus faecium),MIC (Pseudomonas aeruginosa),MIC (Escherichia coli),MIC (Staphylococcus aureus [1]),growth inhibition (GI) (Staphylococcus aureus [2]),MIC (Streptococcus pneumoniae),MIC (Acinetobacter baumannii)
COC(=O)CCCCOc1ccc2ncc(F)c(CCC34CCC(NCc5ccc6c(n5)NC(=O)CO6)(CC3)CO4)c2n1,2 µg/mL,4 µg/mL,4 µg/mL,0.063 µg/mL,Active,0.5 µg/mL,4 µg/mL
O=C1COc2ccc(CNC34CCC(CCc5c(F)cnc6ccc(OC(F)F)nc56)(CC3)OC4)nc2N1,1 µg/mL,4 µg/mL,2 µg/mL,0.016 µg/mL,Active,0.125 µg/mL,0.5 µg/mL
O=C1COc2ccc(CNC34CCC(CCc5c(F)cnc6ccc(OCCO)nc56)(CC3)OC4)nc2N1 [listing 1 of 2 here],,,,,Active,,
N[C@H]1C(=O)N[C@@H]1COc1ccc2ncc(F)c(CCC34CCC(NCc5ccc6c(n5)NC(=O)CO6)(CC3)CO4)c2n1,16 µg/mL,32 µg/mL,16 µg/mL,0.5 µg/mL,Active,0.5 µg/mL,32 µg/mL
CC(C)(O)CCOc1ccc2ncc(F)c(CCC34CCC(NCc5ccc6c(n5)NC(=O)CO6)(CC3)CO4)c2n1,16 µg/mL,16 µg/mL,16 µg/mL,1 µg/mL,Active,4 µg/mL,16 µg/mL
NCCCOc1ccc2ncc(F)c(CCC34CCC(NCc5ccc6c(n5)NC(=O)CO6)(CC3)CO4)c2n1 [listing 1 of 2 here],4 µg/mL,8 µg/mL,2 µg/mL,0.25 µg/mL,,0.5 µg/mL,2 µg/mL
O=C1COc2ccc(CNC34CCC(CCc5c(F)cnc6ccc(OCCC(F)(F)C(=O)O)nc56)(CC3)OC4)nc2N1,16 µg/mL,16 µg/mL,16 µg/mL,16 µg/mL,Active,16 µg/mL,16 µg/mL
O=C1COc2ccc(CNC34CCC(CCc5c(F)cnc6ccc(OC[C@H]7C[C@@H](O)[C@@H](O)C7)nc56)(CC3)OC4)nc2N1,4 µg/mL,8 µg/mL,8 µg/mL,0.063 µg/mL,Active,0.5 µg/mL,8 µg/mL
N[C@H]1CO[C@H]1COc1ccc2ncc(F)c(CCC34CCC(NCc5ccc6c(n5)NC(=O)CO6)(CC3)CO4)c2n1,4 µg/mL,32 µg/mL,4 µg/mL,0.063 µg/mL,Active,0.5 µg/mL,1 µg/mL
NCC1(COc2ccc3ncc(F)c(CCC45CCC(NCc6ccc7c(n6)NC(=O)CO7)(CC4)CO5)c3n2)CC1,16 µg/mL,32 µg/mL,8 µg/mL,1 µg/mL,Active,0.5 µg/mL,4 µg/mL
COC(=O)[C@H]1C[C@@H]1COc1ccc2ncc(F)c(CCC34CCC(NCc5ccc6c(n5)NC(=O)CO6)(CC3)CO4)c2n1 (relative stereo),4 µg/mL,16 µg/mL,16 µg/mL,0.031 µg/mL,Active,0.25 µg/mL,8 µg/mL
NCC(O)COc1ccc2ncc(F)c(CCC34CCC(NCc5ccc6c(n5)NC(=O)CO6)(CC3)CO4)c2n1 (stereo not drawn),16 µg/mL,16 µg/mL,8 µg/mL,2 µg/mL,Active,1 µg/mL,32 µg/mL
NCCCCOc1ccc2ncc(F)c(CCC34CCC(NCc5ccc6c(n5)NC(=O)CO6)(CC3)CO4)c2n1,8 µg/mL,16 µg/mL,4 µg/mL,0.5 µg/mL,Active,1 µg/mL,8 µg/mL
O=C1COc2ccc(CNC34CCC(CCc5c(F)cnc6ccc(OCCO)nc56)(CC3)OC4)nc2N1 [listing 2 of 2 here],1 µg/mL,8 µg/mL,4 µg/mL,0.031 µg/mL,,0.25 µg/mL,1 µg/mL
O=C1COc2ccc(CNC34CCC([C@@H](O)Cc5c(F)cnc6ccc(OCCCO)nc56)(CC3)OC4)nc2N1 [listing 1 of 2 here],,,,,Active,,
O=C1COc2ccc(CNC34CCC(CCc5c(F)cnc6ccc(OCCCCCO)nc56)(CC3)OC4)nc2N1 [listing 1 of 2 here],,,,,Active,,
O=C1COc2ccc(CNC34CCC(CCc5c(F)cnc6ccc(OCC7(O)COC7)nc56)(CC3)OC4)nc2N1,4 µg/mL,32 µg/mL,16 µg/mL,0.125 µg/mL,Active,0.5 µg/mL,4 µg/mL
O=C1COc2ccc(CNC34CCC(CCc5c(F)cnc6ccc(OC[C@@H]7C[C@@H](O)[C@@H](O)C7)nc56)(CC3)OC4)nc2N1,4 µg/mL,32 µg/mL,16 µg/mL,0.125 µg/mL,Active,0.5 µg/mL,8 µg/mL
NC1COCC1Oc1ccc2ncc(F)c(CCC34CCC(NCc5ccc6c(n5)NC(=O)CO6)(CC3)CO4)c2n1 (stereo not drawn),8 µg/mL,16 µg/mL,4 µg/mL,0.125 µg/mL,Active,1 µg/mL,1 µg/mL
COCCOc1ccc2ncc(F)c(CCC34CCC(NCc5ccc6c(n5)NC(=O)CO6)(CC3)CO4)c2n1 [listing 1 of 2 here],,,,,Active,,

SMILES,MIC (Enterococcus faecium),MIC (Pseudomonas aeruginosa),MIC (Escherichia coli),MIC (Staphylococcus aureus [1]),growth inhibition (GI) (Staphylococcus aureus [2]),MIC (Streptococcus pneumoniae),MIC (Acinetobacter baumannii)
N[C@H]1CO[C@@H]1COc1ccc2ncc(F)c(CCC34CCC(NCc5ccc6c(n5)NC(=O)CO6)(CC3)CO4)c2n1,4 µg/mL,16 µg/mL,4 µg/mL,0.125 µg/mL,Active,0.5 µg/mL,0.5 µg/mL
O=C1COc2ccc(CNC34CCC(CCc5c(F)cnc6ccc(OCC(F)(F)F)nc56)(CC3)OC4)nc2N1,4 µg/mL,16 µg/mL,16 µg/mL,0.063 µg/mL,Active,1 µg/mL,8 µg/mL
O=C1COc2ccc(CNC34CCC(CCc5c(F)cnc6ccc(OCc7cc(=O)c(O)c[nH]7)nc56)(CC3)OC4)nc2N1,64 µg/mL,16 µg/mL,16 µg/mL,8 µg/mL,Active,32 µg/mL,16 µg/mL
O=C1COc2ccc(CNC34CCC([C@@H](O)Cc5c(F)cnc6ccc(OCCO)nc56)(CC3)OC4)nc2N1,4 µg/mL,16 µg/mL,8 µg/mL,0.125 µg/mL,Active,1 µg/mL,2 µg/mL
N[C@H]1COC[C@@H]1Oc1ccc2ncc(F)c(CCC34CCC(NCc5ccc6c(n5)NC(=O)CO6)(CC3)CO4)c2n1,16 µg/mL,32 µg/mL,8 µg/mL,0.25 µg/mL,Active,4 µg/mL,2 µg/mL
N[C@@H]1CO[C@H]1COc1ccc2ncc(F)c(CCC34CCC(NCc5ccc6c(n5)NC(=O)CO6)(CC3)CO4)c2n1,8 µg/mL,16 µg/mL,4 µg/mL,0.25 µg/mL,Active,2 µg/mL,1 µg/mL
O=C1COc2ccc(CNC34CCC(CCc5c(F)cnc6ccc(OCC(O)CO)nc56)(CC3)OC4)nc2N1 (stereo not drawn),4 µg/mL,32 µg/mL,16 µg/mL,0.125 µg/mL,Active,1 µg/mL,4 µg/mL
CCOC(=O)COc1ccc2ncc(F)c(CCC34CCC(NCc5ccc6c(n5)NC(=O)CO6)(CC3)CO4)c2n1,16 µg/mL,16 µg/mL,16 µg/mL,0.25 µg/mL,Active,16 µg/mL,8 µg/mL
NCCOc1ccc2ncc(F)c(CCC34CCC(NCc5ccc6c(n5)NC(=O)CO6)(CC3)CO4)c2n1,4 µg/mL,4 µg/mL,1 µg/mL,0.25 µg/mL,Active,0.5 µg/mL,1 µg/mL
O=C1COc2ccc(CNC34CCC(CCc5c(F)cnc6ccc(OCCCCCO)nc56)(CC3)OC4)nc2N1 [listing 2 of 2 here],4 µg/mL,8 µg/mL,8 µg/mL,0.063 µg/mL,,1 µg/mL,8 µg/mL
O=C1COc2ccc(CNC34CCC(CCc5c(F)cnc6ccc(OCC7(CO)CC7)nc56)(CC3)OC4)nc2N1,4 µg/mL,32 µg/mL,16 µg/mL,0.063 µg/mL,Active,1 µg/mL,4 µg/mL
O=C1COc2ccc(CNC34CCC(CCc5c(F)cnc6ccc(OCCCO)nc56)(CC3)OC4)nc2N1 [listing 1 of 2 here],1 µg/mL,16 µg/mL,4 µg/mL,0.016 µg/mL,,0.25 µg/mL,2 µg/mL
NCCCOc1ccc2ncc(F)c(CCC34CCC(NCc5ccc6c(n5)NC(=O)CO6)(CC3)CO4)c2n1 [listing 2 of 2 here],,,,,Active,,
COCCOc1ccc2ncc(F)c(CCC34CCC(NCc5ccc6c(n5)NC(=O)CO6)(CC3)CO4)c2n1 [listing 2 of 2 here],4 µg/mL,16 µg/mL,8 µg/mL,0.063 µg/mL,,1 µg/mL,4 µg/mL
COc1ccc2ncc(F)c(C[C@H](O)C34CCC(NCc5ccc6c(n5)NC(=O)CO6)(CC3)CO4)c2n1 [listing 1 of 2 here],0.5 µg/mL,8 µg/mL,2 µg/mL,0.02 µg/mL,,0.05 µg/mL,0.5 µg/mL
O=C1COc2ccc(CNC34CCC([C@@H](O)Cc5c(F)cnc6ccc(OCCCO)nc56)(CC3)OC4)nc2N1 [listing 2 of 2 here],4 µg/mL,16 µg/mL,16 µg/mL,0.125 µg/mL,,0.5 µg/mL,4 µg/mL
COc1ccc2ncc(F)c(C[C@H](O)C34CCC(NCc5ccc6c(n5)NC(=O)CO6)(CC3)CO4)c2n1 [listing 2 of 2 here],,,,,Active,,
COC(=O)[C@@H]1C[C@@H]1COc1ccc2ncc(F)c(CCC34CCC(NCc5ccc6c(n5)NC(=O)CO6)(CC3)CO4)c2n1 (relative stereo),,,,,Active,,
O=C1COc2ccc(CNC34CCC(CCc5c(F)cnc6ccc(OCCCO)nc56)(CC3)OC4)nc2N1 [listing 2 of 2 here],,,,,Active,,
